“And” between values parts separate entries of the source, which are not always exact repeats. Identical values can stand only once. Inconclusive results and toxic doses are left out.
Tested on: L1210 leukemia ip in BDF1 mice, survival T/C
Assay: NCI In Vivo Anticancer Drug Screen. Data for tumor model L1210 Leukemia (intraperitoneal) in B6D2F1 (BDF1) mice
Details: higher = longer survival
In short: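 Antitumor effect is assessed in tumor-bearing animals. Survival in the compound arm is compared with a vehicle-dosed control arm and expressed as their quotient.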

## CC(CN1CC(=O)NC(=O)C1)N1CC(=O)NC(=O)C1 (stereo not drawn)
endpoint: mean survival time, dose: 1.6 mg/kg/injection, schedule: Q03HX016 (oral), vehicle: steriod suspending solution
  T/C: 122 % of control
endpoint: mean survival time, dose: 1.6 mg/kg/injection, schedule: Q03HX024 (ip), vehicle: steriod suspending solution
  T/C: 156 % of control
endpoint: mean survival time, dose: 1.6 mg/kg/injection, schedule: Q03HX024 (oral), vehicle: steriod suspending solution
  T/C: 124 % of control
endpoint: mean survival time, dose: 6.25 mg/kg/injection, schedule: Q03HX008 (ip), vehicle: steriod suspending solution
  T/C: 118 % of control
endpoint: mean survival time, dose: 12.5 mg/kg/injection, schedule: Q01DX009 (oral), vehicle: steriod suspending solution
  T/C: 156 % of control
endpoint: mean survival time, dose: 12.5 mg/kg/injection, schedule: Q01DX009 (sc), vehicle: steriod suspending solution
  T/C: 117 % of control
endpoint: mean survival time, dose: 12.5 mg/kg/injection, schedule: Q01DX Z (ip), vehicle: steriod suspending solution
  T/C: 154 % of control
endpoint: mean survival time, dose: 12.5 mg/kg/injection, schedule: Q03HX024 (oral), vehicle: steriod suspending solution
  T/C: 101 % of control
endpoint: mean survival time, dose: 12.5 mg/kg/injection, schedule: Q04DX003 (ip), vehicle: steriod suspending solution
  T/C: 109 % of control
endpoint: mean survival time, dose: 18.0 mg/kg/injection, schedule: Q01DX009 (ip), vehicle: saline
  T/C: 151 % of control
endpoint: mean survival time, dose: 25.0 mg/kg/injection, schedule: Q03HX008 (ip), vehicle: steriod suspending solution
  T/C: 155 % of control
endpoint: mean survival time, dose: 25.0 mg/kg/injection, schedule: Q04DX003 (ip), vehicle: Klucel (hydroxypropylcellulose) (HPC)
  T/C: 109 % of control
endpoint: mean survival time, dose: 25.0 mg/kg/injection, schedule: Q04DX003 (ip), vehicle: steriod suspending solution
  T/C: 103 % of control
endpoint: mean survival time, dose: 25.0 mg/kg/injection, schedule: Q04DX003 (iv), vehicle: water
  T/C: 113 % of control and 122 % of control
endpoint: mean survival time, dose: 25.0 mg/kg/injection, schedule: Q04DX003 (oral), vehicle: steriod suspending solution
  T/C: 115 % of control
endpoint: mean survival time, dose: 27.0 mg/kg/injection, schedule: Q01DX009 (ip), vehicle: saline
  T/C: 155 % of control
endpoint: mean survival time, dose: 32.0 mg/kg/injection, schedule: Q04DX003 (ip), vehicle: saline with Tween-80
  T/C: 104 % of control
endpoint: mean survival time, dose: 50.0 mg/kg/injection, schedule: Q01DX001 (ip), vehicle: saline
  T/C: 107 % of control
endpoint: mean survival time, dose: 50.0 mg/kg/injection, schedule: Q01DX001 (ip), vehicle: steriod suspending solution
  T/C: 107 % of control
endpoint: mean survival time, dose: 50.0 mg/kg/injection, schedule: Q01DX009 (oral), vehicle: steriod suspending solution
  T/C: 98 % of control and 121 % of control
endpoint: mean survival time, dose: 50.0 mg/kg/injection, schedule: Q03HX024 (ip), vehicle: steriod suspending solution
  T/C: 104 % of control
endpoint: mean survival time, dose: 50.0 mg/kg/injection, schedule: Q04DX003 (ip), vehicle: steriod suspending solution
  T/C: 100 % of control
endpoint: mean survival time, dose: 50.0 mg/kg/injection, schedule: Q04DX003 (iv), vehicle: water
  T/C: 112 % of control and 115 % of control and 122 % of control
endpoint: mean survival time, dose: 50.0 mg/kg/injection, schedule: Q06HX012 (oral), vehicle: steriod suspending solution
  T/C: 101 % of control
endpoint: mean survival time, dose: 60.0 mg/kg/injection, schedule: Q01DX009 (ip), vehicle: saline with Tween-80
  T/C: 156 % of control
endpoint: mean survival time, dose: 64.0 mg/kg/injection, schedule: Q04DX003 (ip), vehicle: saline with Tween-80
  T/C: 124 % of control
endpoint: mean survival time, dose: 100.0 mg/kg/injection, schedule: Q01DX001 (ip), vehicle: saline
  T/C: 113 % of control
endpoint: mean survival time, dose: 100.0 mg/kg/injection, schedule: Q01DX001 (oral), vehicle: steriod suspending solution
  T/C: 111 % of control
endpoint: mean survival time, dose: 100.0 mg/kg/injection, schedule: Q01DX009 (oral), vehicle: steriod suspending solution
  T/C: 95 % of control and 103 % of control
endpoint: mean survival time, dose: 100.0 mg/kg/injection, schedule: Q01DX Z (ip), vehicle: steriod suspending solution
  T/C: 113 % of control
endpoint: mean survival time, dose: 100.0 mg/kg/injection, schedule: Q04DX003 (ip), vehicle: steriod suspending solution
  T/C: 151 % of control
endpoint: mean survival time, dose: 100.0 mg/kg/injection, schedule: Q04DX003 (iv), vehicle: water
  T/C: 112 % of control and 115 % of control and 119 % of control
endpoint: mean survival time, dose: 100.0 mg/kg/injection, schedule: Q08DX002 (ip), vehicle: steriod suspending solution
  T/C: 151 % of control
endpoint: mean survival time, dose: 100.0 mg/kg/injection, schedule: Q08DX002 (oral), vehicle: steriod suspending solution
  T/C: 122 % of control
endpoint: mean survival time, dose: 120.0 mg/kg/injection, schedule: Q01DX009 (ip), vehicle: saline with Tween-80
  T/C: 118 % of control
endpoint: mean survival time, dose: 128.0 mg/kg/injection, schedule: Q01DX009 (ip), vehicle: saline with Tween-80
  T/C: 112 % of control
endpoint: mean survival time, dose: 128.0 mg/kg/injection, schedule: Q04DX003 (oral), vehicle: saline with Tween-80
  T/C: 155 % of control
endpoint: mean survival time, dose: 200.0 mg/kg/injection, schedule: Q01DX001 (ip), vehicle: saline
  T/C: 120 % of control
endpoint: mean survival time, dose: 200.0 mg/kg/injection, schedule: Q01DX001 (oral), vehicle: steriod suspending solution
  T/C: 107 % of control
endpoint: mean survival time, dose: 200.0 mg/kg/injection, schedule: Q04DX003 (oral), vehicle: steriod suspending solution
  T/C: 153 % of control
endpoint: mean survival time, dose: 200.0 mg/kg/injection, schedule: Q08DX002 (oral), vehicle: steriod suspending solution
  T/C: 120 % of control
endpoint: mean survival time, dose: 240.0 mg/kg/injection, schedule: Q01DX009 (ip), vehicle: saline with Tween-80
  T/C: 96 % of control
endpoint: mean survival time, dose: 400.0 mg/kg/injection, schedule: Q01DX001 (oral), vehicle: steriod suspending solution
  T/C: 114 % of control
endpoint: mean survival time, dose: 400.0 mg/kg/injection, schedule: Q04DX003 (oral), vehicle: steriod suspending solution
  T/C: 155 % of control
endpoint: mean survival time, dose: 400.0 mg/kg/injection, schedule: Q08DX002 (ip), vehicle: steriod suspending solution
  T/C: 156 % of control
endpoint: mean survival time, dose: 400.0 mg/kg/injection, schedule: Q08DX002 (oral), vehicle: steriod suspending solution
  T/C: 119 % of control
endpoint: mean survival time, dose: 512.0 mg/kg/injection, schedule: Q04DX003 (ip), vehicle: saline with Tween-80
  T/C: 155 % of control
endpoint: mean survival time, dose: 800.0 mg/kg/injection, schedule: Q04DX003 (ip), vehicle: Klucel (hydroxypropylcellulose) (HPC)
  T/C: 154 % of control
endpoint: mean survival time, dose: 800.0 mg/kg/injection, schedule: Q04DX003 (ip), vehicle: water
  T/C: 120 % of control
endpoint: mean survival time, dose: 800.0 mg/kg/injection, schedule: Q08DX002 (ip), vehicle: steriod suspending solution
  T/C: 111 % of control
endpoint: mean survival time, dose: 1024.0 mg/kg/injection, schedule: Q04DX003 (oral), vehicle: saline with Tween-80
  T/C: 120 % of control
endpoint: mean survival time, dose: 2048.0 mg/kg/injection, schedule: Q04DX003 (oral), vehicle: saline with Tween-80
  T/C: 94 % of control
endpoint: median survival time, dose: 4.0 mg/kg/injection, schedule: Q03HX024 (ip), vehicle: Klucel (hydroxypropylcellulose) (HPC)
  T/C: 153 % of control
endpoint: median survival time, dose: 8.0 mg/kg/injection, schedule: Q01DX009 (sc), vehicle: saline with Tween-80
  T/C: 120 % of control
endpoint: median survival time, dose: 8.0 mg/kg/injection, schedule: Q03HX008 (ip), vehicle: saline with Tween-80
  T/C: 156 % of control
endpoint: median survival time, dose: 12.5 mg/kg/injection, schedule: Q01DX009 (ip), vehicle: Klucel (hydroxypropylcellulose) (HPC)
  T/C: 150 % of control
endpoint: median survival time, dose: 12.5 mg/kg/injection, schedule: Q03HX008 (ip), vehicle: Klucel (hydroxypropylcellulose) (HPC)
  T/C: 150 % of control
endpoint: median survival time, dose: 16.0 mg/kg/injection, schedule: Q03HX008 (ip), vehicle: saline with Tween-80
  T/C: 154 % of control
endpoint: median survival time, dose: 16.0 mg/kg/injection, schedule: Q03HX024 (ip), vehicle: saline with Tween-80
  T/C: 113 % of control
endpoint: median survival time, dose: 25.0 mg/kg/injection, schedule: Q01DX009 (ip), vehicle: Klucel (hydroxypropylcellulose) (HPC)
  T/C: 150 % of control
endpoint: median survival time, dose: 25.0 mg/kg/injection, schedule: Q03HX008 (ip), vehicle: Klucel (hydroxypropylcellulose) (HPC)
  T/C: 151 % of control and 155 % of control
endpoint: median survival time, dose: 45.0 mg/kg/injection, schedule: Q03HX024 (ip), vehicle: Klucel (hydroxypropylcellulose) (HPC)
  T/C: 155 % of control
endpoint: median survival time, dose: 50.0 mg/kg/injection, schedule: Q03HX008 (ip), vehicle: Klucel (hydroxypropylcellulose) (HPC)
  T/C: 115 % of control
endpoint: median survival time, dose: 64.0 mg/kg/injection, schedule: Q01DX001 (ip), vehicle: saline with Tween-80
  T/C: 105 % of control
endpoint: median survival time, dose: 64.0 mg/kg/injection, schedule: Q03HX008 (ip), vehicle: saline with Tween-80
  T/C: 156 % of control
endpoint: median survival time, dose: 64.0 mg/kg/injection, schedule: Q03HX016 (ip), vehicle: saline with Tween-80
  T/C: 96 % of control
endpoint: median survival time, dose: 64.0 mg/kg/injection, schedule: Q08DX002 (ip), vehicle: saline with Tween-80
  T/C: 109 % of control
endpoint: median survival time, dose: 100.0 mg/kg/injection, schedule: Q01DX001 (ip), vehicle: other
  T/C: 122 % of control
endpoint: median survival time, dose: 100.0 mg/kg/injection, schedule: Q01DX001 (ip), vehicle: steriod suspending solution
  T/C: 122 % of control
endpoint: median survival time, dose: 100.0 mg/kg/injection, schedule: Q04DX003 (ip), vehicle: other
  T/C: 122 % of control
endpoint: median survival time, dose: 108.0 mg/kg/injection, schedule: Q01DX001 (ip), vehicle: Klucel (hydroxypropylcellulose) (HPC)
  T/C: 114 % of control and 120 % of control
endpoint: median survival time, dose: 128.0 mg/kg/injection, schedule: Q01DX001 (ip), vehicle: saline with Tween-80
  T/C: 109 % of control
endpoint: median survival time, dose: 128.0 mg/kg/injection, schedule: Q01DX009 (sc), vehicle: saline with Tween-80
  T/C: 107 % of control
endpoint: median survival time, dose: 128.0 mg/kg/injection, schedule: Q04DX003 (ip), vehicle: saline with Tween-80
  T/C: 124 % of control
endpoint: median survival time, dose: 128.0 mg/kg/injection, schedule: Q08DX002 (ip), vehicle: saline with Tween-80
  T/C: 119 % of control
endpoint: median survival time, dose: 168.0 mg/kg/injection, schedule: Q04DX003 (ip), vehicle: Klucel (hydroxypropylcellulose) (HPC)
  T/C: 152 % of control and 155 % of control
endpoint: median survival time, dose: 180.0 mg/kg/injection, schedule: Q01DX001 (ip), vehicle: Klucel (hydroxypropylcellulose) (HPC)
  T/C: 118 % of control and 120 % of control
endpoint: median survival time, dose: 200.0 mg/kg/injection, schedule: Q01DX001 (ip), vehicle: steriod suspending solution
  T/C: 155 % of control
endpoint: median survival time, dose: 256.0 mg/kg/injection, schedule: Q01DX001 (ip), vehicle: saline with Tween-80
  T/C: 113 % of control
endpoint: median survival time, dose: 400.0 mg/kg/injection, schedule: Q01DX001 (ip), vehicle: steriod suspending solution
  T/C: 150 % of control and 155 % of control
endpoint: median survival time, dose: 400.0 mg/kg/injection, schedule: Q04DX003 (ip), vehicle: other
  T/C: 94 % of control
endpoint: median survival time, dose: 512.0 mg/kg/injection, schedule: Q08DX002 (ip), vehicle: saline with Tween-80
  T/C: 150 % of control
endpoint: median survival time, dose: 700.0 mg/kg/injection, schedule: Q04DX003 (ip), vehicle: Klucel (hydroxypropylcellulose) (HPC)
  T/C: 105 % of control and 106 % of control
